From US10844044B2 (Vanderbilt University, priority 2018, dated 2020)
Like-named read-outs stand apart in the source and are kept apart here.

Target: WDR5 (Homo sapiens (Human), UniProt P61964)
Experiment: TR-FRET binding assay (displacement of 10mer-Thr-FAM probe from WDR5)
[1] = read-out: Ki for Inhibition of WDR5 by TR-FRET assay, TR-FRET, 10mer-Thr-FAM probe, WDR5-His tag 2 nM, pH 7.0
[2] = read-out: Ki for Inhibition of WDR5 by TR-FRET assay

Compound	Ki [1] [nM]	also measured
Cc1cc(CNC(=O)c2cc(Cn3ccn(C)c3=N)cc(-c3ccc(F)cc3C(F)(F)F)n2)ccc1Cl [Example 99, N-(4-Chloro-3-methylbenzyl)-6-(4-fluoro-2-(trifluoromethyl)phenyl)-4-((2-imino-3-methyl-2,3-dihydro-1H-imidazol-1-yl)methyl)picolinamide]	1.1	
COc1cc(CNC(=O)c2cc(Cn3ccn(C)c3=N)cc(-c3ccc(F)cc3C(F)(F)F)n2)cc(OC)c1 [Example 100, N-(3,5-Dimethoxybenzyl)-6-(4-fluoro-2-(trifluoromethyl)phenyl)-4-((2-imino-3-methyl-2,3-dihydro-1-imidazol-1-yl)methyl)picolinamide]	0.71	
Cc1ccnc(C(NC(=O)c2cc(Cn3ccn(C)c3=N)cc(-c3ccc(F)cc3C(F)(F)F)n2)C2CC2)c1 (centres unmarked) [Example 101, N-(Cyclopropyl(4-methylpyridin-2-yl)methyl)-6-(4-fluoro-2-(trifluoromethyl)phenyl)-4-((2-imino-3-methyl-2,3-dihydro-1H-imidazol-1-yl)methyl)picolinamide]	0.45	
COC(=O)CC(NC(=O)c1cc(Cn2ccn(C)c2=N)cc(-c2ccc(F)cc2C(F)(F)F)c1F)c1ccc(Cl)c(Cl)c1 (centres unmarked) [Example 110, Methyl 3-(3,4-dichlorophenyl)-3-(2,4′-difluoro-5-((2-imino-3-methyl-2,3-dihydro-1H-imidazol-1-yl)methyl)-2′-(trifluoromethyl)-[1,1′-biphenyl]-3-carboxamido)propanoate]	0.1	
Cc1[nH]c(=O)ccc1-c1cc(Cn2ccn(C)c2=N)cc(C(=O)NCc2ccc(Cl)c(Cl)c2)c1 [Example 112, N-(3,4-Cichlorobenzyl)-3-((2-imino-3-methyl-2,3-dihydro-1-imidazol-1-yl)methyl)-5-(2-methyl-6-oxo-1,6-dihydropyridin-3-yl)benzamide]	29	
Cc1cc([C@@H](NC(=O)c2cc(Cn3ccn(C)c3=N)cc(-c3cnc(F)cc3C)c2)C2CC2)ccc1F [Example 113, (S)—N-(Cyclopropyl(4-fluoro-3-methylphenyl)methyl)-3-(6-fluoro-4-methylpyridin-3-yl)-5-((2-imino-3-methyl-2,3-dihydro-1H-imidazol-1-yl)methyl)benzamide]	> 33	
Cc1cc([C@@H](NC(=O)c2cc(Cn3ccn(C)c3=N)cc(-c3cncnc3C(F)(F)F)c2)C2CC2)ccc1F [Example 123, (S)—N-(Cyclopropyl(4-fluoro-3-methylphenyl)methyl)-3-((2-imino-3-methyl-2,3-dihydro-1H-imidazol-1-yl)methyl)-5-(4-(trifluoromethyl)pyrimidin-5-yl)benzamide]		Ki [2]: 0.18 nM
C[C@H](NC(=O)c1cc(Cn2ccn(C)c2=N)cc(-c2cccnc2C(F)(F)F)c1)c1ccc(F)c(Cl)c1 [Example 124, (S)—N-(1-(3-chloro-4-fluorophenyl)ethyl)-3-((2-imino-3-methyl-2,3-dihydro-1H-imidazol-1-yl)methyl)-5-(2-(trifluoromethyl)pyridin-3-yl)benzamide]		Ki [2]: 1 nM
C[C@H](NC(=O)c1cc(Cn2ccn(C)c2=N)cc(-c2cccnc2C(F)(F)F)c1)c1ccc(C(F)(F)F)cc1 [Example 126, (S)-3-((2-Imino-3-methyl-2,3-dihydro-1H-imidazol-1-yl)methyl)-N-(1-(4-(trifluoromethyl)phenyl)ethyl)-5-(2-(trifluoromethyl)pyridin-3-yl)benzamide]	2.5	
Cn1ccn(Cc2cc(C(=O)N[C@H](c3ccc(F)cn3)C3CC3)cc(-c3cccnc3C(F)(F)F)c2)c1=N [Example 128, (S)—N-(Cyclopropyl(5-fluoropyridin-2-yl)methyl)-3-((2-imino-3-methyl-2,3-dihydro-1H-imidazol-1-yl)methyl)-5-(2-(trifluoromethyl)pyridin-3-yl)benzamide]	23	
Cn1ccn(Cc2cc(C(=O)N[C@H]3CCc4cc(F)ccc43)cc(-c3cccnc3C(F)(F)F)c2)c1=N [Example 129, (S)—N-(5-Fluoro-2,3-dihydro-1H-inden-1-yl)-3-((2-imino-3-methyl-2,3-dihydro-1H-imidazol-1-yl)methyl)-5-(2-(trifluoromethyl)pyridin-3-yl)benzamide]		Ki: > 33 nM
C[C@H](NC(=O)c1cc(Cn2ccn(C)c2=N)cc(-c2cccnc2C(F)(F)F)c1)c1ncc(F)cn1 [Example 130, (S)—N-(1-(5-Fluoropyrimidin-2-yl)ethyl)-3-((2-imino-3-methyl-2,3-dihydro-1H-imidazol-1-yl)methyl)-5-(2-(trifluoromethyl)pyridin-3-yl)benzamide]	> 33	
COc1cc(CNC(=O)c2cc(Cn3ccn(-c4ccccc4)c3=N)cc(-c3ccc(F)cc3C)c2)cc(OC)c1 [Example 133, N-(3,5-Dimethoxybenzyl)-4′-fluoro-5-((2-imino-3-phenyl-2,3-dihydro-1H-imidazol-1-yl)methyl)-2′-methyl-[1,1′-biphenyl]-3-carboxamide]		Ki: > 33 nM
COc1cc(CNC(=O)c2cc(Cn3ccn(CC4CC4)c3=N)cc(-c3ccc(F)cc3C)c2)cc(OC)c1 [Example 134, 5-((3-(Cyclopropylmethyl)-2-imino-2,3-dihydro-1H-imidazol-1-yl)methyl)-N-(3,5-dimethoxybenzyl)-4′-fluoro-2′-methyl-[1,1′-biphenyl]-3-carboxamide]	38	
Cc1cc([C@@H](NC(=O)c2cc(Cn3ccn(C)c3=N)cc(-c3ccnc4c3CCC4)c2)C2CC2)ccc1F [Example 136, (S)—N-(Cyclopropyl(4-fluoro-3-methylphenyl)methyl)-3-(6,7-dihydro-5H-cyclopenta[b]pyridin-4-yl)-5-((2-imino-3-methyl-2,3-dihydro-1H-imidazol-1-yl)methyl)benzamide]	< 0.1	
Cc1cc([C@@H](NC(=O)c2cc(Cn3ccn(-c4ccccc4)c3=N)cc(-c3cccnc3C(F)(F)F)c2)C2CC2)ccc1F [Example 137, (S)—N-(Cyclopropyl(4-fluoro-3-methylphenyl)methyl)-3-((2-imino-3-phenyl-2,3-dihydro-1H-imidazol-1-yl)methyl)-5-(2-(trifluoromethyl)pyridin-3-yl)benzamide]		Ki [2]: > 33 nM
Cc1ccnc(C(NC(=O)c2cc(Cn3ccn(C)c3=N)cc(OC(F)(F)F)c2)C2CC2)c1 (centres unmarked) [Example 145, N-(Cyclopropyl(4-methylpyridin-2-yl)methyl)-3-((2-imino-3-methyl-2,3-dihydro-1H-imidazol-1-yl)methyl)-5-(trifluoromethoxy)benzamide]	0.95	
Cn1ccn(Cc2cc(OC(F)(F)F)cc(C(=O)N[C@@H](CC(=O)O)c3cccc(C(F)(F)F)c3)c2)c1=N [Example 146, (S)-3-(3-((2-Imino-3-methyl-2,3-dihydro-1H-imidazol-1-yl)methyl)-5-(trifluoromethoxy)benzamido)-3-(3-(trifluoromethyl)phenyl)propanoic acid]	10	
Cn1ccn(Cc2cc(C(=O)N[C@@H](CC(=O)O)c3cccc(C(F)(F)F)c3)c(F)c(-c3ccc(F)cc3C(F)(F)F)c2)c1=N [Example 148, (S)-3-(2,4′-Difluoro-5-((2-imino-3-methyl-2,3-dihydro-1H-imidazol-1-yl)methyl)-2′-(trifluoromethyl)-[1,1′-biphenyl]-3-carboxamido)-3-(3-(trifluoromethyl)phenyl)propanoic acid]	0.29	
Cc1ccnc([C@@H](NC(=O)c2cc(Cn3ccn(C)c3=N)cc(OC(F)(F)F)c2)C2CC2)c1 [Example 149, (S)—N-(Cyclopropyl(4-methylpyridin-2-yl)methyl)-3-((2-imino-3-methyl-2,3-dihydro-1H-imidazol-1-yl)methyl)-5-(trifluoromethoxy)benzamide]	0.56	
Cn1ccn(Cc2cc(C(=O)N[C@H](c3ccc(Cl)c(Cl)c3)C3CC3)cc(-c3ccc(F)cc3OC(F)F)c2)c1=N [Example 150, (S)—N-(Cyclopropyl(3,4-dichlorophenyl)methyl)-2′-(difluoromethoxy)-4′-fluoro-5-((2-imino-3-methyl-2,3-dihydro-1H-imidazol-1-yl)methyl)-[1,1′-biphenyl]-3-carboxamide]	0.13	
N=c1n(Cc2cc(C(=O)N[C@H](c3ccc(Cl)c(Cl)c3)C3CC3)cc(-c3ccc(F)cc3OC(F)F)c2)ccn1C1CC1 [Example 151, (S)—N-(Cyclopropyl(3,4-dichlorophenyl)methyl)-5-((3-cyclopropyl-2-imino-2,3-dihydro-1H-imidazol-1-yl)methyl)-2′-(difluoromethoxy)-4′-fluoro-[1,1′-biphenyl]-3-carboxamide]	0.59	
COc1cc(CNC(=O)c2cc(Cn3ccn(C)c3=N)cc(-c3ccc(F)cc3C(N)=O)c2)cc(OC)c1 [Example 152, N3′-(3,5-dimethoxybenzyl)-4-fluoro-5′-((2-imino-3-methyl-2,3-dihydro-1H-imidazol-1-yl)methyl)-[1,1′-biphenyl]-2,3′-dicarboxamide]		Ki: 8.9 nM
Cn1ccn(Cc2cc(C(=O)N[C@H](c3ccc(Cl)c(Cl)c3)C3CC3)cc(-c3cccnc3C(F)(F)F)c2)c1=N [Example 153, (S)—N-(Cyclopropyl(3,4-dichlorophenyl)methyl)-3-((2-imino-3-methyl-2,3-dihydro-1H-imidazol-1-yl)methyl)-5-(2-(trifluoromethyl)pyridin-3-yl)benzamide]	0.33	
N=c1n(Cc2cc(C(=O)N[C@H](c3ccc(Cl)c(Cl)c3)C3CC3)cc(-c3cccnc3C(F)(F)F)c2)ccn1C1CC1 [Example 155, (S)—N-(Cyclopropyl(3,4-dichlorophenyl)methyl)-3-((3-cyclopropyl-2-imino-2,3-dihydro-1H-imidazol-1-yl)methyl)-5-(2-(trifluoromethyl)pyridin-3-yl)benzamide]	1.4	
Cc1cc([C@@H](NC(=O)c2cc(Cn3ccn(C4CC4)c3=N)cc(-c3cn(CC(C)C)nc3C(F)(F)F)c2)C2CC2)ccc1F [Example 163, (S)—N-(Cyclopropyl(4-fluoro-3-methylphenyl)methyl)-3-((3-cyclopropyl-2-imino-2,3-dihydro-1H-imidazol-1-yl)methyl)-5-(1-isobutyl-3-(trifluoromethyl)-1H-pyrazol-4-yl)benzamide]	0.68	
